According to patent US11684599B2, “Very-long-chain polyunsaturated fatty acids, elovanoid hydroxylated derivatives, and methods of use” (Board of Supervisors of Louisiana State University and …, priority 2017, dated 2023):

Legend:
[1] = tested on: cerebral cortical mixed neuronal cells or hippocampal neurons; test: Oxygen glucose deprivation (OGD) of neurons in culture, cell viability; assay type: cell-based, rat; conditions: for neuroprotection against OGD-induced neuronal cell death: 200 nM, 500 nM or 1 μM added after 90 mins OGD and 2 h reoxygenation, Hoechst, calcein or MTT
Text: Primary cultures of cortical and hippocampal neurons were harvested from 18-day-old embryos (E18) taken from timed-pregnant, two-month-old Sprague-Dawley (SD) rats (Charles River Lab., Wilmington, Mass.). Briefly, timed-pregnant SD rats were euthanized and embryos were collected in sterile conditions. Embryonic brains were dissected out by forceps on ice and placed in a petri dish containing ice-cold Hank's Balanced Salt Solution (HBSS) (GIBCO). Meninges were removed under a dissecting microscope and cortical tissues were chopped into small pieces with micro-spring scissors. These tissues were transferred to 15 ml tubes containing trypsin-EDTA (0.025% in HBSS) and DNase I. The tubes were incubated in 37° C. chamber for 15 mins and were agitated every 5 mins. After stopping the trypsinization with 5 ml 10% FBS, these tissues were triturated 15 times with a fire polished Pasteur pipet. Cell clumps were left to settle for 2 mins and the supernatant was transferred to a 15 ml Eppendorf tube. The supernatant was filtered through a 70 μm pore-sized filter (Corning cell strainer) and centrifuged for 5 mins at 1000 rpm. The cells were then resuspended in Neurobasal medium (GIBCO) containing 2% B27 (GIBCO) and 2% N2 (GIBCO) supplements, along with 0.5 mM glutamine, 50 U/ml penicillin/streptomycin.
Cells were counted using a Neubauer hemocytometer. 1×10^6 cells were seeded on poly-D-lysine-coated 12 well cell culture dish (CORNING) and cultured in incubator (37° C., 5% CO2). Culture medium was first replaced after 24 h, then half of the medium was replaced with fresh medium every three days. As a result, approximately, 90% purity of neurons was obtained as determined by class-III-β tubulin, GFAP and Hoechst 33258 staining. Cells were maintained in culture for about 2 weeks until they were exposed to uncompensated oxidative stress, OGD, or NMDA excitotoxicity.
An in vitro oxygen glucose deprivation (OGD) model was established. Primary cortical neurons were cultured from SD rat embryos. On day in vitro (DIV) 12, cells were washed with phosphate-buffered saline and incubated in glucose-free Neurobasal medium (GIBCO) for 30 mins. The cells were then placed in a modular incubator chamber and incubated in an anaerobic chamber (95% N2, 5% CO2) at 37° C. for 90 mins for OGD.
After 90 mins of OGD exposure, cells were returned to the original medium (Neurobasal medium (GIBCO) containing 2% B27 (GIBCO) and 2% N2 (GIBCO) supplements, along with 0.5 mM glutamine, 50 U/ml penicillin/streptomycin) and placed in a normoxic chamber (37° C., 5% CO2) for 2 h. […] a normoxic chamber (37° C., 5% CO2) for 12 h, after which cells were sampled and assayed for cell viability using different methods as previously described (25-28). Cerebral cortical mixed neuronal cells or hippocampal cells in culture were exposed to either NMDA or uncompensated oxidative stress (UOS) for 12 h by addition of either NMDA (25 μM, 50 μM, or 100 μM) concentration or by the addition of TNFα (10 ng/mL) and H2O2 (50 μM, 100 μM, or 200 μM). Cell viability and neuroprotection in the presence of ELV-N32, ELV-N34, 32:6, or 34:6 were assayed after 12 h.
Cells were washed with 1× Dulbecco's Phosphate Buffered Saline (DPBS) containing no calcium or magnesium (GIBCO) and fixed for 10 mins using ice-cold 4% paraformaldehyde (PFA) followed by 15 mins incubation in 100% methanol. Cells were washed with 1× Phosphate Buffered Saline (PBS) pH 7.4 (GIBCO) and incubated in PBS containing 20 μM Hoechst 33258 (Molecular Probes) for 20 mins. Cells were then washed 3 times with 1×PBS and stored in 1×PBS at 4° C. until they were imaged for microscopy.
One 4×4 tile mosaic was acquired from the center of each well using a Zeiss 510 Meta laser confocal microscope and LSM 510 Meta software. Images were imported into image analysis software ImageJ (National Institutes of Health, Bethesda, Md.) and batch processed using custom macros. […]

[2] = tested on: ARPE-19 cells; test: UOS-induced apoptosis in ARPE-19 cells (Hoechst-positive pyknotic cells); assay type: cell-based, human; conditions: for protection against UOS: free fatty acids, ARPE-19 cells; for UOS-induced apoptotic cell death: concentration-dependent 50-500 nM, highest inhibition at 500 nM, lowest at 50 nM; for UOS-induced apoptosis: 200 nM
Experimental: FIGS. 6A and 6B depicts immunostaining of primary human RPE cells using specific markers ZO-1 (Zona occludens-1), RPE65, MITF (Micro-ophtalmia-associated Transcription Factor) and β-catenin, as well as light microscopy depicting primary human RPE cell morphology at different passages in culture. ARPE-19 cells were grown and maintained in T-75 mM flasks in DMEM F-12 medium containing 10% FBS and incubated at 37° C. with a constant supply of 5% CO2. Cells at 75-80% confluence (72 h growth in DMEM/F12+10% FBS) in 6-well plates were serum-starved for 8 h before exposure. […] The serum-starved cells were treated with TNF-α (Sigma-Aldrich, St. Louis, Mo.) (10 ng/ml) and H2O2 (600 μM) to induce oxidative stress and challenged with increasing concentrations (50-500 nM) of VLC-PUFA (C32:6n3 and C34:6n3) simultaneously with oxidative stress for 16 h (apoptosis) and 6 h (Western-blot) before detection of apoptosis and harvesting for protein analysis. In some experiments, DHA at a concentration of 100 nM and 15-LOX-1 inhibitor PD146176 at a concentration of 1 μM was added to treat the RPE cells under stress. Cell extracts were made and protein concentrations adjusted by Bio-Rad (Hercules, Calif.) protein reagent and used for Western blot analysis. To assess cell death, hRPE and ARPE-19 cells were fixed with methanol for 15 mins, washed with 1×PBS then loaded with 2 μM Hoechst dissolved in a Locke's solution (Promega) and incubated for another 15 mins before imaging. Cells were then viewed by using a Zeiss LSM 510 confocal microscope under UV fluorescence. Images were recorded and cell apoptosis was assessed by using an automated unbiased method.

[3] = 250 nM added after OGD exposure
[4] = 500 nM, 90 min OGD, hippocampal (DIV 12) or cortical (DIV 28) culture

CC/C=C\C/C=C\C/C=C\C/C=C\C/C=C\C/C=C\CCCCCCCCCCCCCCC(=O)O [34:6n3, (16Z,19Z,22Z,25Z,28Z,31Z)-tetratriaconta-16,19,22,25,28,31-hexaenoic acid]
neuroprotection after OGD by VLC-PUFA precursor [1, 3]: elicit neuroprotection | neuroprotection after OGD by VLC-PUFA precursor [1, 4]: showed neuroprotection | protection against UOS [2]: elicit protection against UOS

CC/C=C\C/C=C\C/C=C\C/C=C\C/C=C\C/C=C\CCCCCCCCCCCCC(=O)O [32:6n3, (14Z,17Z,20Z,23Z,26Z,29Z)-dotriaconta-14,17,20,23,26,29-hexaenoic acid]
neuroprotection after OGD by VLC-PUFA precursor [1, 3]: provide neuroprotection | neuroprotection after OGD by VLC-PUFA precursor [1, 4]: showed neuroprotection | protection against UOS [2]: elicit protection against UOS

CC/C=C\C[C@H](O)\C=C/C=C/C=C/[C@H](O)C/C=C\C/C=C\CCCCCCCCCCCCCCC(=O)OC [ELV-N34-Me, methyl (16Z,19Z,22R,23E,25E,27Z,29S,31Z)-22,29-dihydroxytetratriaconta-16,19,23,25,27,31-hexaenoate]
neuroprotection against OGD-induced neuronal cell death [1]: elicited neuroprotection | UOS-induced apoptotic cell death [2]: attenuated

CC/C=C\C[C@H](O)\C=C/C=C/C=C/[C@H](O)C/C=C\C/C=C\CCCCCCCCCCCCCCC(=O)[O-].[Na+] [ELV-N34-Na, sodium (16Z,19Z,22R,23E,25E,27Z,29S,31Z)-22,29-dihydroxytetratriaconta-16,19,23,25,27,31-hexaenoate]
neuroprotection against OGD-induced neuronal cell death [1]: elicited neuroprotection | UOS-induced apoptosis [2]: attenuation of apoptosis

CC/C=C\C[C@H](O)\C=C/C=C/C=C/[C@H](O)C/C=C\C/C=C\CCCCCCCCCCCCC(=O)[O-].[Na+] [ELV-N32-Na, sodium (14Z,17Z,20R,21E,23E,25Z,27S,29Z)-20,27-dihydroxydotriaconta-14,17,21,23,25,29-hexaenoate]
neuroprotection against OGD-induced neuronal cell death [1]: elicited neuroprotection | UOS-induced apoptosis [2]: attenuation of apoptosis | UOS-induced apoptotic cell death [2]: attenuated

CC/C=C\C[C@H](O)\C=C/C=C/C=C/[C@H](O)C/C=C\C/C=C\CCCCCCCCCCCCC(=O)OC [ELV-N32-Me, methyl (14Z,17Z,20R,21E,23E,25Z,27S,29Z)-20,27-dihydroxydotriaconta-14,17,21,23,25,29-hexaenoate]
neuroprotection against OGD-induced neuronal cell death [1]: elicited neuroprotection
